Test results published in paper PMC4549746, “Zearalenone in the Intestinal Tissues of Immature Gilts Exposed per os to Mycotoxins” (Toxins, 2015).

Experiments:
[1] = Average daily gains and feed conversion of gilts during 42-day per os exposure; type: in vivo
Procedure: The animals were divided into an experimental group (E, n = 18) and a control group (C, n = 21). Group E animals were orally administered ZEN at 40 μg/kg BW. Group C pigs were fed a placebo. The animals were fed complete diets in a restricted feeding regimen (Table 1). The daily dose of ZEN (40 µg/kg BW) was administered to each animal individually, which corresponds to exposure to 957–1014 µg ZEN/kg of a complete diet, depending on daily feed intake. Zearalenone was biosynthesized, purified and standardized by the Department of Chemistry of the Poznań University of Life Sciences. The experiment covered a period of 42 days. The mycotoxin was administered per os daily, in gelatine capsules before the morning feeding. The ZEN dose was adjusted to the body weight of the experimental animals. The mycotoxin was administered in capsules to prevent problems associated with uneven feed intake. Mycotoxin samples were diluted in 300 μL of 96% ethyl alcohol (96% ethyl alcohol, SWW 2442-90, Polskie Odczynniki Chemiczne SA, Gliwice, Poland) to the required dose level (based on body weight). Final solutions were stored at room temperature for 12 h to evaporate the solvent. The animals were weighed every 7 days to update mycotoxin doses for each gilt. Three animals from the experimental group and the control group each were sacrificed on Days 1, 7, 14, 21, 28, 35 and 42 (a total of 6 gilts in each week of exposure), excluding day 1, when only 3 control group animals were scarified. Every week, tissue samples were collected from the porcine gastrointestinal tract (duodenum, first and middle sections, jejunum, ileum, cecum, ascending colon, transverse colon, descending colon, middle section, and the liver, left lobe). Tissue samples were collected from the whole intestinal cross-sections.

[2] = set-up: method as in PMID 15972077; settings: animal feed naturally contaminated with ZEN and α-ZEL; cited from earlier work
[3] = Group E, ZEN 40 μg/kg BW daily per os, throughout the experiment (42 days)

C[C@H]1CCCC(=O)CCC/C=C/c2cc(O)cc(O)c2C(=O)O1 [ZEN, zearalenone]
differences in average daily gains between groups ([1]; Group E (ZEN 40 μg/kg BW daily per os) vs Group C (placebo)): No significant differences | average daily gains [1, 3]: 602 g | feed per kg of BW gain [1, 3]: 2.61 kg feed per kg of BW gain | absorbed from the duodenum [2]: 65%
